Measured values reported in patent US8609173B2, “Compositions comprising sweetness enhancers and methods of making them” (Senomyx Inc., priority 2008, dated 2013).

Columns and labels:
Format in all cases: in vivo, Human
External panelists [1] = test: Line scale (15-point sucrose equivalence) sensory test, Example 3A/3C, sucrose or LSB, pH 7.1; set-up: key to Average Sweetness / Average Bitterness: 15-point scale: 0 = 0% sucrose to 15 = 15% sucrose; references = 5
Method: (§1) Several types of sensory tests were used to determine the efficacy of 5-(neopentyloxy)-1H-benzo[c][1,2,6]thiadiazin-4-amino-2,2-dioxide in enhancing sweetness of sucrose. Two types of tests were conducted: • 1) Sensory scaling tests were performed using a 15-point percent sucrose equivalence scale for sweetness in order to evaluate sweetness enhancement 5-(neopentyloxy)-1H-benzo[c][1,2,6]thiadiazin-4-amino-2,2-dioxide in sucrose, or in fructose. • 2) Paired comparison tests (2-alternative forced choice difference tests) were used to determine sweetness equivalence for solutions of sucrose vs. 5-(neopentyloxy)-1H-benzo[c][1,2,6]thiadiazin-4-amino-2,2-dioxide or buffer vs. 5-(neopentyloxy)-1H-benzo[c][1,2,6]thiadiazin-4-amino-2,2-dioxide. Stimuli:
Tests were performed with sucrose or fructose. Sweetener was evaluated with and/or without 5-(neopentyloxy)-1H-benzo[c][1,2,6]thiadiazin-4-amino-2,2-dioxide at the appropriate concentration(s).
5-(Neopentyloxy)-1H-benzo[c][1,2,6]thiadiazin-4-amino-2,2-dioxide was prepared as a concentrated stock solution in ethanol to ensure dissolution of the compound. Therefore, all taste solutions contained 0.1% ethanol final concentration. Samples without compound also contained 0.1% ethanol. Low sodium phosphate buffer consists of 0.3 mM KCl, 0.5 mM Na2HPO4, and 0.175 mM KH2PO4.
In scaling test situations, the samples were rated on a 15-point scale for sweetness, ranging from 0=0% sucrose to 15=15% sucrose. To evaluate attributes other than sweetness, references are used for training and are prepared according to the table below. Note that each reference was given a score of 5 on the 15-point scale.
External panelists were used for the tests. The exact number of panelists is reported with test results. Subjects were instructed not to eat or drink anything (except water) for at least 1 hour prior to the test.
Panelists rinsed their mouths with water prior to starting any test. Samples were presented to panelists in a randomized, counterbalanced order. Panelists rinsed with water and had up to a 1 minute delay to clear the mouth of any tastes after each evaluation. Two replicates of each test were performed, unless otherwise noted.

Panelists [2] = test: Paired comparison taste test, flavored water
Method: Two sweetened water solutions were prepared and compared: Flavored Water with 9% Sucrose vs. Flavored Water with 6% Sucrose+2.3 ppm (6.49 μM) of 5-(neopentyloxy)-1H-benzo[c][1,2,6]thiadiazin-4-amino-2,2-dioxide.
Mixing procedures: Dissolve acid into the water using a Lightnin® blender, mix for 5 minutes. Add sugar and continue to mix until dissolved. Add flavors last. Dissolve Compound A into a 0.50% propylene glycol mixture, add last and mix for another 5 minutes. Procedure:
Panelists evaluated two sweetened water solutions in a paired comparison taste test procedure and were instructed to select the sweeter of the two samples. They perform a total of three paired comparison tests each containing the following samples: Flavored Water with 9% Sucrose vs. Flavored Water with 6% Sucrose+2.3 ppm (6.49 μM) 5-(neopentyloxy)-1H-benzo[c][1,2,6]thiadiazin-4-amino-2,2-dioxide.
Two sweetened water solutions were prepared and compared: Flavored Water with 9% Sucrose vs. Flavored Water with 6% Sucrose+2.44 ppm (6.49 μM) of 3-(4-amino-2,2-dioxide-1H-benzo[c][1,2,6]thiadiazin-5-yloxy)-2′,2′-dimethyl-N-propylpropanamide.
Panelists evaluated two sweetened water solutions in a paired comparison taste test procedure and were instructed to select the sweeter of the two samples. They perform a total of three paired comparison tests each containing the following samples: Flavored Water with 9% Sucrose vs. Flavored Water with 6% Sucrose+2.44 ppm (6.49 μM) 3-(4-amino-2,2-dioxide-1H-benzo[c][1,2,6]thiadiazin-5-yloxy)-2′,2′-dimethyl-N-propylpropanamide.

External panelists [3] = test: Line scale sensory test, Example 6, fructose as sweetener, pH 7.1; set-up: Average Sweetness / Average Bitterness: scale not given here
Method: Sensory evaluations were performed using fructose as the sweetener and 3-(4-amino-2,2-dioxide-1H-benzo[c][1,2,6]thiadiazin-5-yloxy)-2′,2′-dimethyl-N-propylpropanamide as the sweetness enhancer, using methods similar to those using sucrose, above. […]

Panelists [4] = test: Paired comparison taste test, Example 7, sucrose or fructose solutions; conditions: vs 6% Fructose + 25 μM compound, N = 25
Method: as §1, with “3-(4-amino-2,2-dioxide-1H-benzo[c][1,2,6]thiadiazin-5-yloxy)-2′,2′-dimethyl-N-propylpropanamide 3-(4-amino-2,2-dioxide-1H-benzo[c][1,2,6]thiadiazin-5-yloxy)-2′,2′-dimethyl-N-propylpropanamide” for “5-(neopentyloxy)-1H-benzo[c][1,2,6]thiadiazin-4-amino-2,2-dioxide”, “enhancing the” for “enhancing”, “sucrose” for “sucrose,”, “3-(4-amino-2,2-dioxide-1H-benzo[c][1,2,6]thiadiazin-5-yloxy)-2′,2′-dimethyl-N-propylpropanamide 3-(4-amino-2,2-dioxide-1H-benzo[c][1,2,6]thiadiazin-5-yloxy)-2′,2′-dimethyl-N-propylpropanamide.” for “5-(neopentyloxy)-1H-benzo[c][1,2,6]thiadiazin-4-amino-2,2-dioxide.”
Panelists evaluated two solutions in a paired comparison taste test procedure. They were instructed to select the sweeter of the two samples. They were also asked to comment on how difficult it was to tell the difference in sweetness between both samples and if any off tastes were perceived.
Panelists evaluated two solutions in a paired comparison taste test procedure and were instructed to select the sweeter of the two samples.

[5] = 6% Sucrose + 25 μM compound, pH 7.1, n = 32

## CC(C)(C)COc1cccc2c1C(N)=NS(=O)(=O)N2 [5-(neopentyloxy)-1H-benzo[c][1,2,6]thiadiazin-4-amino-2,2-dioxide]
External panelists [1]; 35.3 μM (10 ppm) compound in LSB or 6% sucrose
  off tastes: no significant off tastes
External panelists [1]; [5]
  Average Bitterness: 0.3
  Average Sweetness: 8.7
External panelists [1]; 6% Sucrose + 35.3 μM (10 ppm) compound, n = 14
  Average Bitterness: 0.6
External panelists [1]; 6% Sucrose + 35.3 μM (10 ppm) compound, p>0.10
  Sweetness vs sucrose solutions (conclusion): not significantly different in sweetness from 8%, 9%, 10% sucrose
External panelists [1]; 6% Sucrose + 35.3 μM (10 ppm) compound, pH 7.1, n = 14
  Average Sweetness: 9.3
External panelists [1]; 6% sucrose + 25 μM compound
  Sweetness vs sucrose solutions (conclusion): not significantly different in sweetness properties compared to 9% and 10% sucrose solutions
  off tastes: No significant off tastes
External panelists [1]; LSB + 35.3 μM (10 ppm) compound, no sucrose, n = 14
  Average Bitterness: 0.3
External panelists [1]; LSB + 35.3 μM (10 ppm) compound, no sucrose, pH 7.1, n = 14
  Average Sweetness: 0.2
External panelists [1]; LSB + 35.3 μM (10 ppm) compound, p>0.10
  Sweetness vs sucrose solutions (conclusion): not significantly different in sweetness than 0% sucrose
Panelists [2]; Flavored Water with 6% Sucrose + 2.3 ppm (6.49 μM) compound chosen, vs 9% Sucrose, n = 45
  Sample selected as sweeter by panelists, Total: 23
Panelists [2]; Flavored Water with 6% Sucrose + 2.3 ppm (6.49 μM) compound vs 9% Sucrose, p>0.10
  Sweetness comparison (conclusion): not significantly different in sweetness

## O=C(CO)[C@@H](O)[C@H](O)[C@H](O)CO [Fructose, fructose]
External panelists [3]; 2% Fructose, Table 29, n = 30
  Average Sweetness: 2.2
External panelists [3]; 2% Fructose, Table 30, n = 30
  Average Bitterness: 0.4
External panelists [3]; 4% Fructose, Table 29, n = 30
  Average Sweetness: 4.5
External panelists [3]; 4% Fructose, Table 30, n = 30
  Average Bitterness: 0.5
External panelists [3]; 6% Fructose, Table 29, n = 30
  Average Sweetness: 5.9
External panelists [3]; 6% Fructose, Table 30, n = 30
  Average Bitterness: 0.4
External panelists [3]; 6% Fructose, Table 31, n = 14
  Average Sweetness: 7.1
External panelists [3]; 6% Fructose, Table 32, n = 14
  Average Bitterness: 0.7
External panelists [3]; 6% Fructose, Table 33, n = 26
  Average Sweetness: 6.9
External panelists [3]; 6% Fructose, Table 34, n = 26
  Average Bitterness: 0.2
External panelists [3]; 8% Fructose, Table 31, n = 14
  Average Sweetness: 8.3
External panelists [3]; 8% Fructose, Table 32, n = 14
  Average Bitterness: 0.3
External panelists [3]; 8% Fructose, Table 33, n = 26
  Average Sweetness: 8.6
External panelists [3]; 8% Fructose, Table 34, n = 26
  Average Bitterness: 0.3
External panelists [3]; 9% Fructose, Table 31, n = 14
  Average Sweetness: 9.4
External panelists [3]; 9% Fructose, Table 32, n = 14
  Average Bitterness: 0.3
External panelists [3]; 9% Fructose, Table 33, n = 26
  Average Sweetness: 9.3
External panelists [3]; 9% Fructose, Table 34, n = 26
  Average Bitterness: 0.1
External panelists [3]; 10% Fructose, Table 31, n = 14
  Average Sweetness: 11.1
External panelists [3]; 10% Fructose, Table 32, n = 14
  Average Bitterness: 0.2
External panelists [3]; 10% Fructose, Table 33, n = 26
  Average Sweetness: 9.5
External panelists [3]; 10% Fructose, Table 34, n = 26
  Average Bitterness: 0.1
Panelists [4]; 6% Fructose chosen
  Sample selected as sweeter by panelists, Test 1: 5
Panelists [4]; 7% Fructose chosen
  Sample selected as more sweet by panelists, Test 1: 13
